In patent US20080160019A1, “SEQUENTIAL COMBINATION THERAPY” (DYAX CORP., priority 2006, published 2008):

Key:
[1] = system: BxPC3 (human pancreatic cancer cell line) tumor; assay: Pancreatic cancer xenograft model, tumor size by calipers (Example 3); type: in vivo, nude mice (nu/nu); conditions: for tumor size as compared to control: as single agents; for calculated tumor growth rate, After Avastin / calculated tumor growth rate, Before Avastin (Day 21) / calculated tumor growth rate, Before Avastin (Day 10): DX-2240 or control IgG 20 mg/kg IP Q2d from day 1; for calculated tumor growth rate, Before Avastin (Day 21): before bevacizumab (twenty day pretreatment groups); for calculated tumor growth rate, Before Avastin (Day 10): before bevacizumab start at day 10; for Tumor volume: 20 mg/kg IP Q2d from day 1; as to calculated tumor growth rate, After Avastin: unit not given here; as to calculated tumor growth rate, Before Avastin (Day 10): unit not given here; as to calculated tumor growth rate, Before Avastin (Day 21): unit not given here
Protocol: The antitumor activity of combinations of DX-2240 and bevacizumab (anti-VEGF antibody) or sorafenib (multi-kinase inhibitor) were tested in a human tumor xenograft model. BxPC3 (human pancreatic cancer cell line) tumor fragments harvested from host nude mice (nu/nu) bearing subcutaneous BxPC-3 tumors were implanted subcutaneously into female nude mice (study animals) and allowed to form tumors. Mice were pair matched by tumor size and randomized into the various treatment groups when the tumors reached approximately 100 mm^3 (about 18 days following tumor implantation). The animals were assorted into the treatment groups shown in Table 1 (“Start” refers to the day on which treatment was begun). DX-2240 was administered by intraperitoneal (IP) injection at 20 mg/kg; bevacizumab was administered by IP injection at 10 mg/kg, sorafenib was administered orally at 60 mg/kg (for a total of 9 doses), and the control IgG (palivizumab, an antibody of the same isotype as DX-2240) was administered by IP injection at 20 mg/kg at the indicated dosing start dates and dosing regimens. An additional positive control group (group 13) was included: these animals were dosed with gemcitabine at 40 mg/kg Q3d for a total of four doses.
Tumor size was evaluated every three to four days using calipers.

[2] = system: DU145 prostate cancer cells; assay: Prostate cancer xenograft model, tumor volume (Example 4); type: in vivo, athymic nu/nu mice; conditions: bevacizumab alone at 12 mg/kg, Q5d
Protocol: DU145 prostate cancer cells were injected subcutaneously into athymic nu/nu mice and tumors were allowed to form. Animals were assorted into groups of 9-10 mice, then treated with DX-2240 (20 mg/kg by IP injection, […]), an isotype-matched antibody control (A2, 20 mg/kg by IP injection, Q2d), bevacizumab (12 mg/kg by IP injection, […]), DX-2240 20 mg/kg Q2d+bevacizumab (DX-2240 20 mg/kg Q2d+bevacizumab at 12 mg/kg, […], starting at day 25), DX-2240 20 mg/kg Q4d+bevacizumab (DX-2240 20 mg/kg Q4d+bevacizumab at 12 mg/kg, […], starting at day 25), DX-2240 10 mg/kg Q4d+bevacizumab (DX-2240 10 mg/kg Q4d+bevacizumab at 12 mg/kg, […], starting at day 25), DX-2240 5 mg/kg Q4d+bevacizumab (DX-2240 5 mg/kg Q4d+bevacizumab at 12 mg/kg, […], starting at day 25), DX-2240 1 mg/kg Q4d+bevacizumab (DX-2240 1 mg/kg Q4d+bevacizumab at 12 mg/kg, […], starting at day 25), DX-2240+sorafenib (DX-2240 at 20 mg/kg by IP injection, […], sorafenib at 100 mg/kg orally (PO) daily for nine days (QDx9) starting at day 25 and 56), or A2+sorafenib (A2 at 20 mg/kg by IP injection, […], sorafenib 100 mg/kg PO QDx9 starting at day 25 and 56). After day 34, mice in the DX-2240 only and A2 only groups were given an additional agent, and were no longer available as controls for this experiment. Tumor volume was measured twice weekly.

tumor vasculature = assay: Lectin staining of tumors (tumor vasculature, Example 5); type: in vivo, nude mice (nu/nu); conditions: for lectin staining, High intensity (3+) / lectin staining, Low intensity (1+) / lectin staining, Medium intensity (2+): 20 mg/kg IP Q2D from day 1, BxPC3 tumors; as to lectin staining, High intensity (3+): unit not given here; as to lectin staining, Low intensity (1+): unit not given here; as to lectin staining, Medium intensity (2+): unit not given here
Protocol: To determine changes in tumor vasculature, three animals from each of groups 1 and 2 were randomly selected for destructive sample collection, including tumor and serum on days 5, 10, 15, and 20. Animals were injected IV with 150 μL of a biotinylated-lectin solution (no injections on day 5 and 15). Five minutes later, animals were perfused by intracardiac injection with a 1% paraformaldehyde solution in PBS for 3 minutes. Tumors were then collected, placed in the perfusion solution, and sent immediately for analysis. Blood was collected by cardiac puncture and serum extracted, flash frozen in liquid nitrogen, and stored at −80° C.

[3] = system: DU 145 human prostate tumor model; assay: DU 145 prostate tumor model, mean tumor volume (Example 6); type: in vivo, nude mice (nu/nu); conditions: 20 mg/kg IP Q2D x17 from day 1
Protocol: Male nude mice (nu/nu) were injected subcutaneously with DU 145 cells harvested from tissue culture (˜1×10^7 cells/mouse). When tumors grew to approximately 95 mm^3 in size (about 7 days following injection), animals were pair-matched by tumor size into treatment and control groups.
Treatment was initiated after the animals were paired-matched (day 1). Animals in control and treatment groups were dosed by weight (10 ml/kg). DX-2240 and the control IgG (palivizumab) were administered by IP injection either once every other day for seventeen treatments beginning day 1 or once every four days for nine treatments beginning day 1. Sorafenib was dosed per os via gavage once daily for nine treatments beginning day 15. To serve as a control, the control IgG was administered every other day for seventeen treatments beginning day 1. Individual and group mean tumor volumes were recorded twice weekly from day 1 until day 57.

[4] = system: BxPC-3 human pancreas cancer model; assay: BxPC-3 pancreas cancer model, dosing schedules, mean tumor volume (Example 5); type: in vivo, nude mice (nu/nu); conditions: 20 mg/kg IP Q2D x10 from day 1, implanted tumor fragments
Protocol: Female nude mice (nu/nu) were divided into 14 groups. Animals in groups 1-12 were implanted subcutaneously by trocar with BxPC3 tumor fragments harvested from growing tumors in nude mice hosts. Mice in groups 13-14 were injected subcutaneously with approximately 1×10^7 BxPC-3 cells from tissue culture. When injected tumors grew to approximately 104 mm^3 in size (about 19 days following implantation) and implanted tumors grew to approximately 110 mm^3 in size (about 22 days following implantation) animals were pair-matched by tumor size into treatment and control groups. Animals from groups 1 and 2 were used to evaluate tumor vasculature. Animals from groups 13 and 14 were used to compare effects of DX-2240 on tumors formed from cell injection.
Treatment was initiated after the animals were pair-matched (day 1). Animals in all groups were dosed by weight (10 ml/kg). The control IgG and DX-2240 were administered by IP injection at 20 mg/kg, and bevacizumab and the rat α-mouse VEGF IgG antibody were administered by IP injection at 10 mg/kg once every three days. Dosing was initiated on day −3, 1, 5, 6, 10 or 20.
Individual and group mean tumor volumes were recorded twice weekly from day 1 until day 39.

Tie1 = Tie1 (Homo sapiens, UniProt P35590); conditions: cited from earlier work
Chain of Tie1 (P35590 22-1138): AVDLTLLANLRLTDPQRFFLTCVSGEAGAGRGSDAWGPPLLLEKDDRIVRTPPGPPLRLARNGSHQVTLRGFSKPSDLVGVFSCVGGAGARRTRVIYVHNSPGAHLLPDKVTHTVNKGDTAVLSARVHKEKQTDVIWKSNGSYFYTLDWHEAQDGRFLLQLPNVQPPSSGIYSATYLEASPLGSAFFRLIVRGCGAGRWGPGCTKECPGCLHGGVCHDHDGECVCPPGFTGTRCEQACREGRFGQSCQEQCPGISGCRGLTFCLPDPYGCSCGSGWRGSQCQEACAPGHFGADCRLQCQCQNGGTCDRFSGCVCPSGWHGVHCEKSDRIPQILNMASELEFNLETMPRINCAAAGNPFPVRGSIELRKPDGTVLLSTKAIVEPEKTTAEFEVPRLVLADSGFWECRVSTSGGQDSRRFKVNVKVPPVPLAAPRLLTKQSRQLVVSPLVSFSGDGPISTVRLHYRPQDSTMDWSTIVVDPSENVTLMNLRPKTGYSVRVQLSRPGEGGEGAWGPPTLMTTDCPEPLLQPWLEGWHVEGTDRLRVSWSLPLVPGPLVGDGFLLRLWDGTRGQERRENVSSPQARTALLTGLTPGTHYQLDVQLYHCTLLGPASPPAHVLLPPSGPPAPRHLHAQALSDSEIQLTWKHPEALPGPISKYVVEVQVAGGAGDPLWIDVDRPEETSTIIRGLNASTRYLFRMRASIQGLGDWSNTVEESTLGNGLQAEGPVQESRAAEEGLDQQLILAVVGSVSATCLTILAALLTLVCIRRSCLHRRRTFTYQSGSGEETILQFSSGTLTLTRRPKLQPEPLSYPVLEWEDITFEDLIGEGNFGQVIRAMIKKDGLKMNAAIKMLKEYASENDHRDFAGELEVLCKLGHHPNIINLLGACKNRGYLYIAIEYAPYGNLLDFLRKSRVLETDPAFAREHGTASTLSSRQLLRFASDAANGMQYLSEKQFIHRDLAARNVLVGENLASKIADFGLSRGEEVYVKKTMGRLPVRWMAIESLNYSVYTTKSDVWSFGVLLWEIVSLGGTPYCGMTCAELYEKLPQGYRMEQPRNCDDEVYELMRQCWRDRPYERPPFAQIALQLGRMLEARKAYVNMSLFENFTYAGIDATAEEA

[5] = after bevacizumab 10 mg/kg IP Q3d (twenty day pretreatment groups)
[6] = after bevacizumab 10 mg/kg IP Q3d started at day 10
[7] = DX-2240 or control IgG from day 1, bevacizumab (Avastin) after twenty day pretreatment
[8] = DX-2240 or control IgG from day 1, bevacizumab (Avastin) from day 10

bevacizumab: anti-VEGF antibody
tumor size as compared to control [1]: reduced tumor size | tumor size [2]: tumor shrinkage

Control IgG: palivizumab, an antibody of the same isotype as DX-2240 [reference compound]
lectin staining, High intensity (3+) (tumor vasculature; Day 10): 19242 | lectin staining, Low intensity (1+) (tumor vasculature; Day 10): 1214685 | lectin staining, Medium intensity (2+) (tumor vasculature; Day 10): 3148400 | lectin staining, High intensity (3+) (tumor vasculature; Day 20): 7824 | lectin staining, Low intensity (1+) (tumor vasculature; Day 20): 222879 | lectin staining, Medium intensity (2+) (tumor vasculature; Day 20): 272402 | calculated tumor growth rate, After Avastin [1, 5]: 23.8 ± 8.6 | calculated tumor growth rate, After Avastin [1, 6]: 33.3 ± 6.6 | calculated tumor growth rate, Before Avastin (Day 21) [1]: 28.3 ± 5.2 | calculated tumor growth rate, Before Avastin (Day 10) [1]: 41.1 ± 9.0 | # of stable tumor growths or tumor regressions [1, 7]: 1/8 | # of stable tumor growths or tumor regressions [1, 8]: 0/8 | Tumor volume ([1]; day 1): 106.9 mm^3 | Tumor volume ([1]; day 3): 164.7 mm^3 | Tumor volume ([1]; day 7): 293.2 mm^3 | Tumor volume ([1]; day 10): 366.4 mm^3 | Tumor volume ([1]; day 14): 521.8 mm^3 | Tumor volume ([1]; day 21): 907.5 mm^3 | Tumor volume ([1]; day 24): 1062.0 mm^3 | Tumor volume ([1]; day 28): 1354.0 mm^3 | Tumor volume ([1]; day 31): 1669.1 mm^3 | mean tumor volume ([3]; day 1): 94.9 mm^3 | mean tumor volume ([3]; day 5): 125.7 mm^3 | mean tumor volume ([3]; day 9): 195.1 mm^3 | mean tumor volume ([3]; day 13): 293.5 mm^3 | mean tumor volume ([3]; day 15): 320.9 mm^3 | mean tumor volume ([3]; day 19): 400.7 mm^3 | mean tumor volume ([3]; day 23): 417.8 mm^3 | mean tumor volume ([3]; day 26): 487.6 mm^3 | mean tumor volume ([3]; day 29): 450.5 mm^3 | mean tumor volume ([3]; day 33): 501.1 mm^3 | mean tumor volume ([3]; day 36): 529.3 mm^3 | mean tumor volume ([4]; day 1): 107.6 mm^3 | mean tumor volume ([4]; day 4): 180.1 mm^3 | mean tumor volume ([4]; day 8): 237.7 mm^3 | mean tumor volume ([4]; day 11): 249.9 mm^3 | mean tumor volume ([4]; day 15): 355.9 mm^3 | mean tumor volume ([4]; day 18): 300.0 mm^3

DX-2240: Germlined F allotyped E3 antibody, Tie1 ectodomain-binding (SEQ ID NO:10-13)
lectin staining of tumors as compared to control animals (tumor vasculature; DX-2240 20 mg/kg IP Q2D): less lectin staining | functional tumor vasculature (tumor vasculature; DX-2240-treated animals): less functional tumor vasculature | lectin staining, High intensity (3+) (tumor vasculature; Day 10): 92134 | lectin staining, Low intensity (1+) (tumor vasculature; Day 10): 909706 | lectin staining, Medium intensity (2+) (tumor vasculature; Day 10): 3468512 | lectin staining, High intensity (3+) (tumor vasculature; Day 20): 5922 | lectin staining, Low intensity (1+) (tumor vasculature; Day 20): 122022 | lectin staining, Medium intensity (2+) (tumor vasculature; Day 20): 205406 | calculated tumor growth rate, After Avastin [1, 5]: 18.6 ± 8.0 | calculated tumor growth rate, After Avastin [1, 6]: 12.2 ± 3.3 | calculated tumor growth rate, Before Avastin (Day 21) [1]: 23.1 ± 6.6 | calculated tumor growth rate, Before Avastin (Day 10) [1]: 23.9 ± 4.9 | # of stable tumor growths or tumor regressions [1, 7]: 2/8 | # of stable tumor growths or tumor regressions [1, 8]: 1/6 | tumor size as compared to control [1]: reduced tumor size | Tumor volume ([1]; day 1): 105.6 mm^3 | Tumor volume ([1]; day 3): 139.9 mm^3 | Tumor volume ([1]; day 7): 223.1 mm^3 | Tumor volume ([1]; day 10): 331.6 mm^3 | Tumor volume ([1]; day 14): 460.5 mm^3 | Tumor volume ([1]; day 21): 724.4 mm^3 | Tumor volume ([1]; day 24): 954.1 mm^3 | Tumor volume ([1]; day 28): 1171.1 mm^3 | Tumor volume ([1]; day 31): 1351.4 mm^3 | Tie1 tyrosine phosphorylation (Tie1): induce | Tie complex formation (Tie1): induce | down modulation of Tie1 from the cell surface (Tie1): induce | Tie1/Tie2 heterodimers on the surface of cells expressing Tie1 and Tie2 (Tie1; e.g., endothelial cells): down-modulation | mean tumor volume ([3]; day 1): 94.6 mm^3 | mean tumor volume ([3]; day 5): 162.6 mm^3 | mean tumor volume ([3]; day 9): 269.3 mm^3 | mean tumor volume ([3]; day 13): 417.3 mm^3 | mean tumor volume ([3]; day 15): 460.0 mm^3 | mean tumor volume ([3]; day 19): 553.9 mm^3 | mean tumor volume ([3]; day 23): 644.4 mm^3 | mean tumor volume ([3]; day 26): 707.1 mm^3 | mean tumor volume ([3]; day 29): 737.8 mm^3 | mean tumor volume ([3]; day 33): 866.7 mm^3 | mean tumor volume ([3]; day 36): 1008.3 mm^3 | mean tumor volume ([4]; day 1): 107.7 mm^3 | mean tumor volume ([4]; day 4): 157.7 mm^3 | mean tumor volume ([4]; day 8): 194.2 mm^3 | mean tumor volume ([4]; day 11): 199.0 mm^3 | mean tumor volume ([4]; day 15): 308.7 mm^3 | mean tumor volume ([4]; day 18): 289.1 mm^3
